Molecules are shown by their SMILES.

In the experiment the test system is Aphis gossypii. Kind of experiment: Aphis gossypii killing test (Test Example 3). It is filed as in vivo. Particulars: 72 h, 500 ppm active ingredient, cucumber nursery plant with nymphs dipped, after 3 days, 25° C., read-out: percentage of dead insects. How it is done:
[formula] The water-dispersible powder prepared in accordance with Formulation example 2 was diluted in water so that the concentration of the active ingredient was 500 ppm. A nursery plant of cucumber preliminarily inoculated with nymphs of Aphis gossypii was dipped in this liquid agent, and air-dried. The nursery plant of cucumber after the treatment was placed in a thermostatic chamber at 25° C., and the number of live insects was counted after 3 days, and the percentage of dead insects was determined by the calculation formula of numerical formula 1. The test was conducted singly.
As to `NC(=O)c1nn(-c2cccnc2)cc1O` [Compound A-0001, 4-hydroxy-1-(pyridine-3-yl)-1H-pyrazole-3-carboxamide], the pest or weed control at 500 ppm was at least 50%. As to `CC(C)(C)CCOc1cn(-c2cccnc2)nc1C(N)=O` [Compound A-0017, 4-(3,3-dimethylbutoxy)-1-(pyridine-3-yl)-1H-pyrazole-3-carboxamide], the pest or weed control at 500 ppm was at least 50%. To `NC(=O)c1nn(-c2cccnc2)cc1OCC(F)(F)C(F)(F)F` [Compound A-0044, 4-(2,2,3,3,3-pentafluoropropoxy)-1-(pyridine-3-yl)-1H-pyrazole-3-carboxamide] belongs at least 50%; to `NC(=O)c1nn(-c2cccnc2)cc1OC(F)(F)C(F)OC(F)(F)F` (centres unmarked) [Compound A-0071, 1-(pyridine-3-yl)-4-[1,1,2-trifluoro-2-(trifluoromethoxy)ethoxy]-1H-pyrazole-3-carboxamide], at least 50%; to `NC(=O)c1nn(-c2cccnc2)cc1OCc1ccccc1` [Compound A-0240, 4-benzyloxy-1-(pyridine-3-yl)-1H-pyrazole-3-carboxamide], at least 50%. As for `CC(C)C(=O)NC(=O)c1nn(-c2cccnc2)cc1OC(F)(F)C(F)OC(F)(F)F` (centres unmarked) [Compound A-2403, N-isobutyryl-1-(pyridine-3-yl)-4-[1,1,2-trifluoro-2-(trifluoromethoxy)ethoxy]-1H-pyrazole-3-carboxamide], the figure is at least 50%; as for `NC(=S)c1nn(-c2cccnc2)cc1OC(F)(F)C(F)OC(F)(F)F` (centres unmarked) [Compound A-5436, 1-(pyridine-3-yl)-4-[1,1,2-trifluoro-2-(trifluoromethoxy)ethoxy]-1H-pyrazole-3-carbothioamide], at least 50%. As for `NC(=O)c1nn(-c2ccc[n+]([O-])c2)cc1OC(F)(F)C(F)OC(F)(F)F` (centres unmarked) [Compound A-5510, 3-(3-carbamoyl-4-[1,1,2-trifluoro-2-(trifluoromethoxy)ethoxy]-1H-pyrazole-1-yl)pyridine-1-oxide], the figure is at least 50%.

The values are drawn from patent US11993578B2, “Pyrazole-3-carboxylic acid amide derivative and pest control agent” (KUMIAI CHEMICAL INDUSTRY CO., LTD., priority 2017, dated 2024).
